Experiments:
Test in all cases: relative viability (nuclei count vs DMSO), 5 days (fraction); higher = more cells survive
VX-11e + Pictilisib = compound: CC1=CN=C(N=C1C2=CNC(=C2)C(=O)N[C@H](CO)C3=CC(=CC=C3)Cl)NC4=C(C=C(C=C4)F)Cl [VX-11e] + CS(=O)(=O)N1CCN(Cc2cc3nc(-c4cccc5[nH]ncc45)nc(N4CCOCC4)c3s2)CC1 [Pictilisib] (partner 1 µM)
Procedure, shortened: (§1)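 Lung cancer cell lines were pin-tool dosed in 1536-well plates on the day after seeding, with either a lone drug or a fixed anchor-drug dose plus five library-drug doses (not always all listed) in √10 steps. Nuclei were counted on 4× images after 5 days. Relative viability is the ratio of treated-well to vehicle-well nuclei counts, with each value a median of duplicate plates.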

VX-11e + Alpelisib = compound: CC1=CN=C(N=C1C2=CNC(=C2)C(=O)N[C@H](CO)C3=CC(=CC=C3)Cl)NC4=C(C=C(C=C4)F)Cl [VX-11e] + Cc1nc(NC(=O)N2CCC[C@H]2C(N)=O)sc1-c1ccnc(C(C)(C)C(F)(F)F)c1 [Alpelisib] (partner 2 µM)
Procedure, shortened: as §1

VX-11e + Phenformin = compound: CC1=CN=C(N=C1C2=CNC(=C2)C(=O)N[C@H](CO)C3=CC(=CC=C3)Cl)NC4=C(C=C(C=C4)F)Cl [VX-11e] + N=C(N)NC(=N)NCCc1ccccc1 [Phenformin] (partner 250 µM)
Procedure, shortened: as §1

VX-11e + AZD7762 = compound: CC1=CN=C(N=C1C2=CNC(=C2)C(=O)N[C@H](CO)C3=CC(=CC=C3)Cl)NC4=C(C=C(C=C4)F)Cl [VX-11e] + NC(=O)Nc1cc(-c2cccc(F)c2)sc1C(=O)N[C@H]1CCCNC1 [AZD7762] (partner 0.2 µM)
Procedure, shortened: as §1

Cell Line	relative viability (VX-11e + Pictilisib; first compound 0.04 µM)	relative viability (VX-11e + Pictilisib; first compound 0.1265 µM)	relative viability (VX-11e + Pictilisib; first compound 0.4 µM)	relative viability (VX-11e + Pictilisib; first compound 1.265 µM)	relative viability (VX-11e + Pictilisib; first compound 4 µM)	relative viability (VX-11e + Alpelisib; first compound 0.04 µM)	relative viability (VX-11e + Alpelisib; first compound 0.1265 µM)	relative viability (VX-11e + Alpelisib; first compound 0.4 µM)	relative viability (VX-11e + Alpelisib; first compound 1.265 µM)	relative viability (VX-11e + Alpelisib; first compound 4 µM)	relative viability (VX-11e + Phenformin; first compound 0.04 µM)	relative viability (VX-11e + Phenformin; first compound 0.1265 µM)	relative viability (VX-11e + Phenformin; first compound 0.4 µM)	relative viability (VX-11e + Phenformin; first compound 1.265 µM)	relative viability (VX-11e + Phenformin; first compound 4 µM)	relative viability (VX-11e + AZD7762; first compound 0.04 µM)	relative viability (VX-11e + AZD7762; first compound 0.1265 µM)	relative viability (VX-11e + AZD7762; first compound 0.4 µM)	relative viability (VX-11e + AZD7762; first compound 1.265 µM)	relative viability (VX-11e + AZD7762; first compound 4 µM)
201T	0.599	0.658	0.608	0.542	0.647	1.01	0.989	0.995	1.08	0.92	0.445	0.476	0.38	0.453	0.418	0.592	0.586	0.562	0.626	0.74
A-427	0.454	0.468	0.535	0.422	0.154	0.962	1.06	0.878	0.667	0.239	0.343	0.213	0.263	0.264	0.158	0.743	0.641	0.633	0.566	0.438
ABC-1	0.615	0.539	0.809	0.518	0.466	0.988	0.735	0.832	0.857	0.725	0.205	0.277	0.224	0.243	0.281	0.988	0.785	0.711	0.779	0.572
BEN	0.465	0.533	0.628	0.392	0.468	1.14	0.906	1.04	0.612	0.806	–	0.267	0.256	0.299	0.253	0.481	0.635	0.823	0.634	0.567
CAL-12T	–	–	0.393	0.524	0.295	1.4	1.03	1.07	0.898	0.295	0.677	0.507	0.504	0.41	0.194	0.639	0.641	0.575	0.533	0.544
COR-L23	0.83	0.72	0.52	0.382	0.184	0.913	0.742	0.669	0.379	0.17	0.52	0.409	0.471	0.428	0.276	–	–	–	–	–
COR-L 105	0.341	0.41	0.362	0.29	0.322	0.929	0.973	0.799	0.329	0.357	0.489	0.487	0.391	0.366	0.227	–	–	–	–	–
Calu-6	1.03	0.874	0.907	0.261	0.0991	1.12	0.98	0.94	0.456	0.125	–	–	–	–	–	–	–	–	–	–
ChaGo-K-1	0.351	–	0.587	0.567	0.569	–	–	–	–	–	0.435	0.478	0.382	0.472	0.407	0.889	0.801	0.796	0.896	0.767
EBC-1	0.494	0.436	0.378	0.201	0.162	0.816	0.766	0.632	0.693	0.23	–	–	–	–	–	–	–	–	–	–
EKVX	0.447	0.545	0.461	0.404	0.19	0.953	0.869	0.984	0.752	0.335	0.211	0.237	0.13	0.216	0.197	0.634	0.74	0.764	0.723	0.448
EMC-BAC-2	0.468	0.488	0.516	0.432	0.337	0.731	0.662	0.687	0.618	0.534	0.518	0.481	0.633	0.545	0.51	1.2	0.96	1.13	1	0.855
EPLC-272H	0.301	0.299	0.266	0.213	0.233	0.742	0.702	0.823	0.835	0.512	0.322	0.22	–	0.32	0.225	0.147	0.21	–	0.201	0.285
H3255	0.476	0.428	0.482	0.596	0.316	0.662	0.617	0.436	0.688	0.562	0.359	0.411	0.378	0.362	0.319	0.745	0.834	0.859	0.923	0.825
HARA	0.0961	0.425	0.322	0.341	0.188	0.772	0.776	0.787	0.865	0.338	0.453	0.431	0.414	0.399	0.314	0.575	0.391	0.258	0.281	0.306

Source: the supplement of paper PMC10307832
